This test has as its system subject with uncontrolled type II diabetes / non insulin-dependent diabetes. The experiment in a line: Anecdotal studies: hypoglycemic effect, blood glucose level of diabetic subjects. The test is classed as in vivo, human. Particulars: before capsules.

Turning to `CN(C)C(=N)N=C(N)N` [metformin], the “daily blood glucose level (base level) on metformin alone” value reads like this: (study 2: person, 61 kg, non insulin-dependent diabetes, metformin 500 mg BID) 234 mg/dL; (study 3: person, 67 kg, non insulin-dependent uncontrolled diabetic, metformin 500 mg, three tablets per day) 261 mg/dL.

The values above are taken from patent US9034400B2, “Process for preparation of a herbal extract” (Piramal Enterprises Limited, priority 2011, dated 2015).
